Measurements: article PMC8286840, “Identifying SARS-CoV-2 antiviral compounds by screening for small molecule inhibitors of Nsp3 papain-like protease” (Biochemical Journal, 2021)
Where a name gives a salt, the structure may show the parent alone. Read-outs that look alike come from different tables or passages of the source.

How the values were obtained:
[1] = target: T1, SARS-CoV-2 PLpro (nsp3 1564–1878) (Severe acute respiratory syndrome coronavirus 2, UniProt P0DTD1); assay: biochemical; parameters: FRET-quenched peptide (Pro3) cleavage by PLpro, 10 min pre-incubation, slope over 20 min, normalised to no-compound control; settings: read-out: % of control remaining
[2] = target: T1, SARS-CoV-2 PLpro (nsp3 1564–1878); assay: biochemical; parameters: FRET-quenched peptide (Pro3) cleavage by PLpro, 10 min pre-incubation, slope over 20 min, normalised to no-compound control; settings: read-out: % of control remaining; remark: listed apart in the source

## Nc1nc2c(nc(Br)n2[C@@H]2O[C@@H]3COP(=O)(O)O[C@H]3[C@H]2O)c(=O)[nH]1 [8-Bromo-cGMP sodium]
[1]; Well no.=214, low concentration screen
  remaining activity at 1.25 µM: 102%
[2]; Well no.=214, high concentration screen
  remaining activity at 3.75 µM: 102%

## COCCCN1CCC(NC(=O)c2cc(Cl)c(N)c3c2OCC3)CC1 [Prucalopride (succinate)]
[1]; Well no.=7675, low concentration screen
  remaining activity at 1.25 µM: 100%
[2]; Well no.=7675, high concentration screen
  remaining activity at 3.75 µM: 103%

## CCC[C@@H]1C[C@@H](C(=O)N[C@@H]([C@H]2O[C@H](SC)[C@H](OP(=O)(O)O)[C@@H](O)[C@H]2O)[C@H](C)Cl)N(C)C1 [Clindamycin phosphate]
[1]; Well no.=5052, low concentration screen
  remaining activity at 1.25 µM: 105%
[2]; Well no.=5052, high concentration screen
  remaining activity at 3.75 µM: 104%

## CC(C)(Cc1ccc2ccccc2c1)NC[C@@H](O)COc1cccc(Cl)c1C#N [NPS-2143]
[1]; Well no.=7036, low concentration screen
  remaining activity at 1.25 µM: 96.4%
[2]; Well no.=7036, high concentration screen
  remaining activity at 3.75 µM: 93.8%

## Clc1ccc2nsnc2c1NC1=NCCN1 [Tizanidine.HCl]
[1]; Well no.=1563, low concentration screen
  remaining activity at 1.25 µM: 98.4%
[2]; Well no.=1563, high concentration screen
  remaining activity at 3.75 µM: 98%

## COc1ccccc1CN[C@H]1C2CCN(CC2)[C@H]1C(c1ccccc1)c1ccccc1 [CP-96345]
[1]; Well no.=5867, low concentration screen
  remaining activity at 1.25 µM: 97.7%
[2]; Well no.=5867, high concentration screen
  remaining activity at 3.75 µM: 96.7%

## COc1cc(C(O)CN)ccc1O (racemic)
[1]; Well no.=1049, low concentration screen
  remaining activity at 1.25 µM: 96.5%
[2]; Well no.=1049, high concentration screen
  remaining activity at 3.75 µM: 96.1%

## Nc1ccc2ncnc(NCCc3ccc(Oc4ccccc4)cc3)c2c1 [NF-kB Activation Inhibitor]
[1]; Well no.=2566, low concentration screen
  remaining activity at 1.25 µM: 97.6%
[2]; Well no.=2566, high concentration screen
  remaining activity at 3.75 µM: 98.5%

## COc1cc(C(=O)O[C@H]2C/C(C)=C/CC/C(C)=C/[C@H](O)[C@@H]2C(C)C)ccc1O [Tschimganidin]
[1]; Well no.=3207, low concentration screen
  remaining activity at 1.25 µM: 89.2%
[2]; Well no.=3207, high concentration screen
  remaining activity at 3.75 µM: 100%

## CCN(CC)CCCCN1c2ccccc2Oc2ccc(Cl)cc21 [Akt Inhibitor X]
[1]; Well no.=2317, low concentration screen
  remaining activity at 1.25 µM: 101%
[2]; Well no.=2317, high concentration screen
  remaining activity at 3.75 µM: 102%

## Cc1ccc(Sc2ccccc2N2CCNCC2)c(C)c1 [Vortioxetine]
[1]; Well no.=6269, low concentration screen
  remaining activity at 1.25 µM: 102%
[2]; Well no.=6269, high concentration screen
  remaining activity at 3.75 µM: 102%

## Cn1c(=O)cc(N2CCC[C@@H](N)C2)n(Cc2cc(F)ccc2C#N)c1=O [Trelagliptin]
[1]; Well no.=8480, low concentration screen
  remaining activity at 1.25 µM: 99.1%
[2]; Well no.=8480, high concentration screen
  remaining activity at 3.75 µM: 98.9%

## CCCCC/C=C\C/C=C\C/C=C\C/C=C\CCCC(=O)OC(CO)CO [2-Arachidonoylglycerol]
[1]; Well no.=4505, low concentration screen
  remaining activity at 1.25 µM: 94.8%
[2]; Well no.=4505, high concentration screen
  remaining activity at 3.75 µM: 88.7%

## CC(CN(C)C)CN1c2ccccc2CCc2ccccc21 (centres unmarked) [Trimipramine (maleate)]
[1]; Well no.=6715, low concentration screen
  remaining activity at 1.25 µM: 106%
[2]; Well no.=6715, high concentration screen
  remaining activity at 3.75 µM: 100%

## CCC(C)N(C)C(=O)c1cc2ccccc2c(-c2ccccc2Cl)n1 (centres unmarked) [PK 11195]
[1]; Well no.=185, low concentration screen
  remaining activity at 1.25 µM: 99.9%
[2]; Well no.=185, high concentration screen
  remaining activity at 3.75 µM: 98.2%

## CC(C)CCC[C@@H](C)[C@H]1CC[C@H]2[C@@H]3CC(=O)[C@H]4C[C@@H](O)CC[C@]4(C)[C@H]3CC[C@]12C [6-Ketocholestanol]
[1]; Well no.=6021, low concentration screen
  remaining activity at 1.25 µM: 94.9%
[2]; Well no.=6021, high concentration screen
  remaining activity at 3.75 µM: 86.6%

## Nc1nc(Nc2ccc(S(N)(=O)=O)cc2)nn1C(=O)c1c(F)cccc1F [Aurora Kinase/Cdk Inhibitor]
[1]; Well no.=2356, low concentration screen
  remaining activity at 1.25 µM: 98.5%
[2]; Well no.=2356, high concentration screen
  remaining activity at 3.75 µM: 100%

## N#Cc1ccc2[nH]cc(CCCCN3CCN(c4ccc5oc(C(N)=O)cc5c4)CC3)c2c1 [Vilazodone (Hydrochloride)]
[1]; Well no.=6286, low concentration screen
  remaining activity at 1.25 µM: 105%
[2]; Well no.=6286, high concentration screen
  remaining activity at 3.75 µM: 106%

## NCCNC(=O)c1ncsc1-c1cccc(F)c1 [Ro 41-1049 hydrochloride]
[1]; Well no.=1496, low concentration screen
  remaining activity at 1.25 µM: 95.5%
[2]; Well no.=1496, high concentration screen
  remaining activity at 3.75 µM: 94.1%

## c1ccc2c(c1)[nH]c1cnccc12 [Norharmane]
[1]; Well no.=3262, low concentration screen
  remaining activity at 1.25 µM: 101%
[2]; Well no.=3262, high concentration screen
  remaining activity at 3.75 µM: 98.5%

## O=C1c2c(O)ccc(O)c2C(=O)c2c(NCCNCCO)ccc(NCCNCCO)c21 [Mitoxantrone]
[1]; Well no.=1028, low concentration screen
  remaining activity at 1.25 µM: 100%
[1]; Well no.=1997, low concentration screen
  remaining activity at 1.25 µM: 104%
[2]; Well no.=1028, high concentration screen
  remaining activity at 3.75 µM: 101%
[2]; Well no.=1997, high concentration screen
  remaining activity at 3.75 µM: 103%

## CC(C)(C)[C@H]1CC[C@H](N(Cc2ccc(C(=O)NCCC(=O)O)cc2)C(=O)Nc2ccc(OC(F)(F)F)cc2)CC1 [GRA Ex-25]
[1]; Well no.=6180, low concentration screen
  remaining activity at 1.25 µM: 103%
[2]; Well no.=6180, high concentration screen
  remaining activity at 3.75 µM: 106%

## C[S+]([O-])c1ccc(-c2nc(-c3ccc(F)cc3)c(-c3ccncc3)[nH]2)cc1 (centres unmarked) [SB 203580]
[1]; Well no.=2644, low concentration screen
  remaining activity at 1.25 µM: 91.3%
[2]; Well no.=2644, high concentration screen
  remaining activity at 3.75 µM: 91.7%

## CC1(C)S[C@@H]2[C@H](NC(=O)[C@H](NC(=O)N3CCNC3=O)c3ccccc3)C(=O)N2[C@H]1C(=O)O [Azlocillin sodium salt]
[1]; Well no.=5356, low concentration screen
  remaining activity at 1.25 µM: 98.5%
[2]; Well no.=5356, high concentration screen
  remaining activity at 3.75 µM: 93.9%

## COc1ccc(CN2CCN(C(c3ccc(F)cc3)c3ccc(F)cc3)CC2)c(OC)c1OC [Lomerizine]
[1]; Well no.=1941, low concentration screen
  remaining activity at 1.25 µM: 98.3%
[2]; Well no.=1941, high concentration screen
  remaining activity at 3.75 µM: 100%

## N#Cc1cc(-c2n[nH]c(-c3ccncc3)n2)ccn1 [Topiroxostat]
[1]; Well no.=8440, low concentration screen
  remaining activity at 1.25 µM: 96.2%
[2]; Well no.=8440, high concentration screen
  remaining activity at 3.75 µM: 97.1%

## Clc1ccc(C(Cn2ccnc2)OCc2ccc(Sc3ccccc3)cc2)c(Cl)c1 (centres unmarked) [Fenticonazole nitrate]
[1]; Well no.=5044, low concentration screen
  remaining activity at 1.25 µM: 96.2%
[2]; Well no.=5044, high concentration screen
  remaining activity at 3.75 µM: 95.9%

## NC(=O)CN1CCCC1=O [Piracetam]
[1]; Well no.=1100, low concentration screen
  remaining activity at 1.25 µM: 96.7%
[2]; Well no.=1100, high concentration screen
  remaining activity at 3.75 µM: 97.5%

## O=C(O)/C(=C/c1c(C(=O)O)[nH]c2cc(Cl)cc(Cl)c12)c1ccccc1 [MDL 105,519]
[1]; Well no.=803, low concentration screen
  remaining activity at 1.25 µM: 95%
[2]; Well no.=803, high concentration screen
  remaining activity at 3.75 µM: 93%

## O=C(O)CCCC/C=C\C[C@@H](O)/C=C/C=C/C=C\[C@@H](O)CCCC(=O)O [20-Carboxy-leukotriene B4]
[1]; Well no.=4427, low concentration screen
  remaining activity at 1.25 µM: 94.3%
[2]; Well no.=4427, high concentration screen
  remaining activity at 3.75 µM: 98.4%

## Cc1cccc([C@H](C)c2c[nH]cn2)c1C [Dexmedetomidine (hydrochloride)]
[1]; Well no.=6367, low concentration screen
  remaining activity at 1.25 µM: 102%
[2]; Well no.=6367, high concentration screen
  remaining activity at 3.75 µM: 103%

## COC(=O)[C@H](CCCCn1cccc1CCC(=O)O)NC(=O)CNC(C)=O [CEP dipeptide 1]
[1]; Well no.=8606, low concentration screen
  remaining activity at 1.25 µM: 98.6%
[2]; Well no.=8606, high concentration screen
  remaining activity at 3.75 µM: 96.4%

## O=C1C[C@@H](c2ccc(O)c(O)c2)Oc2cc(O[C@@H]3O[C@H](CO)[C@@H](O)[C@H](O)[C@H]3O)cc(O)c21 [Eriodictyol-7-O-glucoside]
[1]; Well no.=3261, low concentration screen
  remaining activity at 1.25 µM: 96.6%
[2]; Well no.=3261, high concentration screen
  remaining activity at 3.75 µM: 95.5%

## Nc1cc(Nc2ccc(S(N)(=O)=O)cc2)ncn1 [PNU112455A]
[1]; Well no.=5446, low concentration screen
  remaining activity at 1.25 µM: 100%
[2]; Well no.=5446, high concentration screen
  remaining activity at 3.75 µM: 102%

## COc1cc2c(c(OC)c1OC)-c1ccc(OC)c(=O)cc1[C@@H](NC=O)CC2 [N-Formyl-Deacetylcolchicine]
[1]
  remaining activity at 1.25 µM: 102%
[2]
  remaining activity at 3.75 µM: 103%

## CCCCCCCCCCCCCCCC(=O)O [Hexadecanoic acid]
[1]; Well no.=4302, low concentration screen
  remaining activity at 1.25 µM: 101%
[2]; Well no.=4302, high concentration screen
  remaining activity at 3.75 µM: 97.2%
